Test results reported in ChEMBL document CHEMBL5727449, “Toll-like receptor 7 (TLR7) agonists having heteroatom-linked aromatic moieties, conjugates thereof, and methods and uses therefor” (2019).

Target: T1, Toll-like receptor 7 (Homo sapiens, UniProt Q9NYK1)
T1 sequence (Q9NYK1 whole entry): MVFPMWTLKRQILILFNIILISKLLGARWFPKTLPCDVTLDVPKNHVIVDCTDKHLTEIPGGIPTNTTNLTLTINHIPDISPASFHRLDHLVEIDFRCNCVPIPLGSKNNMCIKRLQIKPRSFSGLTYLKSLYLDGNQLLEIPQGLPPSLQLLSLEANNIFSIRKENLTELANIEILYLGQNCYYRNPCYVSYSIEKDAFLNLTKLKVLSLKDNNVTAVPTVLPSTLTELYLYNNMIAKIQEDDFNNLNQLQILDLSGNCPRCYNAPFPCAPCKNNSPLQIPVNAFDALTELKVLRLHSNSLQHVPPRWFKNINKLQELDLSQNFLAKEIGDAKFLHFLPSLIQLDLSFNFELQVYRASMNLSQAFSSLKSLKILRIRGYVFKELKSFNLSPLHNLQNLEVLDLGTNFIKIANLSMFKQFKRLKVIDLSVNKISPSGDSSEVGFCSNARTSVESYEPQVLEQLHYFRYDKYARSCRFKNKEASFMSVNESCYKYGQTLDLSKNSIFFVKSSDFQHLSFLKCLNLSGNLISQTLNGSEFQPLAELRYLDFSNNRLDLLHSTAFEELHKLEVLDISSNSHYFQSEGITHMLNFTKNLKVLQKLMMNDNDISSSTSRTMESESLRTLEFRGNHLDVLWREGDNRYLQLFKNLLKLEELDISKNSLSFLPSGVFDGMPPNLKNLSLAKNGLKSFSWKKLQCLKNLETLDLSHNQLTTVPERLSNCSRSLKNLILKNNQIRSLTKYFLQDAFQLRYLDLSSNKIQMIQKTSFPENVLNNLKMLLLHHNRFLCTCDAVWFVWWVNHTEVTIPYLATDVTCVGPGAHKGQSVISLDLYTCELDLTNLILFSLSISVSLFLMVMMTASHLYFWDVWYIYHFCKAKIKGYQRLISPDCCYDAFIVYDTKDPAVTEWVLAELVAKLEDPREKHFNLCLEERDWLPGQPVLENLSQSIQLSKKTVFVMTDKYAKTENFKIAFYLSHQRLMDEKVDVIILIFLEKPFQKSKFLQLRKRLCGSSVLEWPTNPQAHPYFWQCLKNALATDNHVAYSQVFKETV
Assay: HEK-Blue™ TLR7 cells were added to each well of a 384-well tissue-culture plate (15,000 cells per well) and incubated 16-18 h at 37° C., 5% CO2. Compounds (100 nl) were dispensed into wells containing the HEK-Blue™ TLR cells and the treated cells were incubated at 37° C., 5% CO2. After 18 h treatment ten microliters of freshly-prepared Quanti-Blue™ reagent (Invivogen) was added to each well, incubated for 30 min (37° C., 5% CO2) and SEAP levels measured using an Envision plate reader (OD=620 nm).

Structure (SMILES)	EC50
CCCCOc1nc(N)c2nc(O)n(Cc3ccc(Oc4ccc(CNCC(C)C)nc4)nc3)c2n1	2.22 nM
CCCCOc1nc(N)c2nc(O)n(Cc3ccc(Oc4ccc(CNCC(C)C)cc4)c(F)c3)c2n1	0.45 nM
CCCCOc1nc(N)c2nc(O)n(Cc3ccc(Oc4ccc(CNC)cc4)nc3)c2n1	1.2 nM
CCCCOc1nc(N)c2nc(O)n(Cc3ccc(Oc4ccc(CNC5CCOCC5)cc4)c(F)c3)c2n1	1.2 nM
CCCCOc1nc(N)c2nc(O)n(Cc3ccc(Oc4ccc(CNCCC#N)cc4)nc3)c2n1	0.35 nM
CCCCOc1nc(N)c2nc(O)n(Cc3ccc(Oc4ccc(CNCCOC)cc4)c(F)c3)c2n1	1.14 nM
CCCCOc1nc(N)c2nc(O)n(Cc3ccc(Oc4cccc(CNCCC#N)n4)cc3)c2n1	3.57 nM
CCCCOc1nc(N)c2nc(O)n(Cc3ccc(Oc4ccc(CNCCO)nc4)nc3)c2n1	1.6 nM
CCCCOc1nc(N)c2nc(O)n(Cc3ccc(Oc4ccc(CN5CCN(C)CC5)nc4)nc3)c2n1	1.77 nM
CCCCOc1nc(N)c2nc(O)n(Cc3ccc(Oc4ccc(CNCC(F)F)nc4)nc3)c2n1	1.8 nM
CCCCOc1nc(N)c2nc(O)n(Cc3cccc(Oc4cccc(CNCCC#N)c4)c3)c2n1	279 nM
CCCCOc1nc(N)c2nc(O)n(Cc3ccc(Oc4ccc(CNCc5ccccc5)cc4)cc3)c2n1	13 nM
CCCCOc1nc(N)c2nc(O)n(Cc3cccc(Oc4cccc(CN5CCNCC5)c4)c3)c2n1	942 nM
CCCCOc1nc(N)c2nc(O)n(Cc3ccc(Nc4ccc(CNCC(F)F)cc4)nc3)c2n1	7.46 nM
CCCCOc1nc(N)c2nc(O)n(Cc3ccc(Oc4ccc(CN5CCN(C)CC5)cc4)c(F)c3)c2n1	2.9 nM
CCCCOc1nc(N)c2nc(O)n(Cc3ccc(Oc4ccc(CNC5CCCC5)cc4)nc3)c2n1	1.6 nM
CCCCOc1nc(N)c2nc(O)n(Cc3cccc(Oc4cccc(CNC5COC5)c4)c3)c2n1	403 nM

Structure (SMILES)	EC50
CCCCOc1nc(N)c2nc(O)n(Cc3cccc(Oc4cccc(CNC5CC(F)(F)C5)c4)c3)c2n1	525 nM
CCCCOc1nc(N)c2nc(O)n(Cc3ccc(Oc4ccc(CNC5CC(F)(F)C5)cc4)nc3)c2n1	1.3 nM
CCCCOc1nc(N)c2nc(O)n(Cc3ccc(Oc4ccc(CNCc5ccccc5)cc4)nc3)c2n1	5.3 nM
CCCCOc1nc(N)c2nc(O)n(Cc3ccc(Oc4cccc(CNC5CCC5)n4)cc3)c2n1	2.51 nM
CCCCOc1nc(N)c2nc(O)n(Cc3ccc(Oc4ccc(CNC(C)C)cc4)nc3)c2n1	1.1 nM
CCCCOc1nc(N)c2nc(O)n(Cc3ccc(Nc4ccc(CNCC(C)C)cc4)nc3)c2n1	7.5 nM
CCCCOc1nc(N)c2nc(O)n(Cc3ccc(Nc4ccc(CNCCOC)cc4)nc3)c2n1	1.19 nM
CCCCOc1nc(N)c2nc(O)n(Cc3cccc(Oc4cccc(CNCCO)c4)c3)c2n1	375 nM
CCCCOc1nc(N)c2nc(O)n(Cc3ccc(Nc4ccc(CNC5CCOCC5)cc4)nc3)c2n1	4.3 nM
CCCCOc1nc(N)c2nc(O)n(Cc3ccc(Oc4ccc(CNC5CCC5)cc4)c(F)c3)c2n1	1.38 nM
CCCCOc1nc(N)c2nc(O)n(Cc3ccc(Oc4ccc(CNC5C6CC5C6)cc4)nc3)c2n1 (stereo not drawn)	1.3 nM
CCCCOc1nc(N)c2nc(O)n(Cc3ccc(Nc4ccc(CN5CCN(C)CC5)cc4)nc3)c2n1	4.2 nM
CCCCOc1nc(N)c2nc(O)n(Cc3ccc(Oc4ccc(CNCCOC)nc4)nc3)c2n1	0.96 nM
CCCCOc1nc(N)c2nc(O)n(Cc3ccc(Oc4cccc(CNC5COC5)n4)cc3)c2n1	4.27 nM
CCCCOc1nc(N)c2nc(O)n(Cc3ccc(Oc4ccc(CNC5CCC5)cc4)cc3)c2n1	2.6 nM
CCCCOc1nc(N)c2nc(O)n(Cc3ccc(Oc4ccc(CNCC(F)F)cc4)c(F)c3)c2n1	1.8 nM

Now from value to compound:

EC50	Structure (SMILES)
435 nM	CCCCOc1nc(N)c2nc(O)n(Cc3cccc(Oc4cccc(CNC5CCC5)c4)c3)c2n1
1.12 nM	CCCCOc1nc(N)c2nc(O)n(Cc3ccc(Oc4ccc(CN5CCC5)cc4)c(F)c3)c2n1
2.4 nM	CCCCOc1nc(N)c2nc(O)n(Cc3ccc(Oc4cccc(CNCC(C)C)n4)cc3)c2n1
1.56 nM	CCCCOc1nc(N)c2nc(O)n(Cc3ccc(Nc4ccc(CN5CCCC5)cc4)nc3)c2n1
12 nM	CCCCOc1nc(N)c2nc(O)n(Cc3ccc(Oc4ccc(CO)cc4)nc3)c2n1
1.12 nM	CCCCOc1nc(N)c2nc(O)n(Cc3ccc(Oc4ccc(CNC5CCOCC5)nc4)nc3)c2n1
0.91 nM	CCCCOc1nc(N)c2nc(O)n(Cc3ccc(Oc4ccc(CNC5CCC5)cc4)nc3)c2n1
2.9 nM	CCCCOc1nc(N)c2nc(O)n(Cc3ccc(Oc4ccc(CNCC(F)F)cc4)nc3)c2n1
455 nM	CCCCOc1nc(N)c2nc(O)n(Cc3cccc(Oc4cccc(CNC)c4)c3)c2n1
154 nM	CCCCOc1nc(N)c2nc(O)n(Cc3cccc(Oc4cccc(CNCCS(C)(=O)=O)c4)c3)c2n1
0.89 nM	CCCCOc1nc(N)c2nc(O)n(Cc3ccc(Oc4ccc(CN5CCOCC5)nc4)nc3)c2n1
5.8 nM	CCCCOc1nc(N)c2nc(O)n(Cc3ccc(Nc4ccc(CNCCO)cc4)nc3)c2n1
0.7 nM	CCCCOc1nc(N)c2nc(O)n(Cc3ccc(Oc4ccc(CNC5COC5)cc4)nc3)c2n1
1.7 nM	CCCCOc1nc(N)c2nc(O)n(Cc3ccc(Oc4ccc(CNC5COC5)cc4)cc3)c2n1
0.374 nM	CCCCOc1nc(N)c2nc(O)n(Cc3ccc(Nc4ccc(CNCCS(C)(=O)=O)cc4)nc3)c2n1
3.9 nM	CCCCOc1nc(N)c2nc(O)n(Cc3ccc(Oc4ccc(CN5CCOCC5)cc4)c(F)c3)c2n1
2.1 nM	CCCCOc1nc(N)c2nc(O)n(Cc3ccc(Oc4ccc(CNC5CC5)cc4)cc3)c2n1
1.8 nM	CCCCOc1nc(N)c2nc(O)n(Cc3ccc(Oc4ccc(CNCCS(C)(=O)=O)cc4)nc3)c2n1
1.4 nM	CCCCOc1nc(N)c2nc(O)n(Cc3ccc(Oc4ccc(CNCCO)cc4)cc3)c2n1
3.2 nM	CCCCOc1nc(N)c2nc(O)n(Cc3ccc(Nc4ccc(CNCC(C)(C)O)cc4)nc3)c2n1
1.23 nM	CCCCOc1nc(N)c2nc(O)n(Cc3ccc(Nc4ccc(CNC5CCC5)cc4)nc3)c2n1
1.1 nM	CCCCOc1nc(N)c2nc(O)n(Cc3ccc(Oc4ccc(CNCC5CC5)cc4)nc3)c2n1
0.54 nM	CCCCOc1nc(N)c2nc(O)n(Cc3ccc(Oc4ccc(CNCC(C)C)cc4)nc3)c2n1
0.46 nM	CCCCOc1nc(N)c2nc(O)n(Cc3ccc(Oc4ccc(CNCCO)cc4)c(F)c3)c2n1
2.07 nM	CCCCOc1nc(N)c2nc(O)n(Cc3ccc(Oc4ccc(CNC5CCC5)nc4)nc3)c2n1
